# Source: PMC12040169 (PLOS Biology, 2025)
# Experiment: in vitro
# Conditions: human, hela cells, % viability
SMILES,"viability at 28.5 h, 10 µM","viability at 28.5 h, 10 µM (bulk resorufin, single well)"
COC(=O)[C@@H](C)NC(=O)[C@@H]1CN(S(C)(=O)=O)CCN1C(=O)c1cccs1 [CBK289623],89.6%,–
COc1ccc(CNC(=O)C2CC(=O)N(c3ccc(O)cc3)C2)cc1 (stereo not shown) [CBK270125],96.8%,–
CCOc1ccc(NC(=O)N(C)Cc2noc(CC(C)C)n2)cc1C#N [CBK307089],85.2%,–
O=C(NCCc1ccccc1)c1nc(-c2ccncc2)cs1 [CBK288604],70%,–
CCCc1ccc(S(=O)(=O)N(c2ccccc2)C2CCNCC2)cc1 [CBK165121T],108%,–
CN(C)c1ccc(-c2cc(N3CCN(S(=O)(=O)c4ccc(Cl)cc4)CC3)ncn2)cc1 [CBK091158],93.5%,–
C[S+]([O-])CCNC(=O)c1cc(-c2ccc(F)cc2)no1 (stereo not shown) [CBK283251],89.6%,–
O=C(N/N=C/c1ccccn1)c1n[nH]c2c1CCCC2 [CBK262882],90.8%,–
O=c1c2cnn(-c3ccccc3)c2nc(Cc2ccccc2)n1-c1cccc2ccccc12 [CBK262316],82.1%,–
Clc1ccc2nc(SCc3csc(Nc4ccccc4)n3)oc2c1 [CBK268269],100%,–
CCC1CCCCN1C(=O)c1ccc(C(F)(F)F)cc1 (stereo not shown) [CBK081165],107%,–
Cc1cc(C)nc(SCC(=O)Nc2cccc(C(=O)O)c2)n1 [CBK263214],101%,–
O=C(Cn1ccc(=O)[nH]c1=O)NCc1cccnc1-n1cccn1 [CBK305705],85%,–
CCCOC1CCCN(C(=O)c2ccc(-c3ccc(Cl)cn3)cc2)C1 (stereo not shown) [CBK306540],89.5%,–
Cc1nc2cc(/N=C/c3c[nH]c4ccccc34)ccc2n1C [CBK262085],88.8%,–
CCN(CC1CCOCC1)C(=O)Cn1c(C)cc(=O)c2ccccc21 [CBK307230],88.7%,–
COCCNc1nccnc1-c1cccnc1 [CBK037376],102%,–
Cc1c(C(=O)NCCCCn2ccnc2)oc2c(C)cccc12 [CBK283315],99.9%,–
CC(=O)Nc1ccc(Nc2cc(C)nc(-n3nc(C)cc3C)n2)cc1 [CBK287746],103%,–
COc1cccc(C(CNS(=O)(=O)c2ccc3c(c2)OCCCO3)N(C)C)c1 (stereo not shown) [CBK298270],98.2%,–
CCOC(=O)c1cn(CC)c2cc(N3CCOCC3)c(F)cc2c1=O [CBK307142],95.7%,–
O=c1[nH]nc2n1-c1ccccc1OC2 [CBK010583],104%,–

SMILES,"viability at 28.5 h, 10 µM","viability at 28.5 h, 10 µM (bulk resorufin, single well)"
Cc1ccc(CCNC(=O)c2snnc2C)cc1C [CBK282051],89.6%,–
CC(=O)Nc1cccc(CN2CCCC2CC(O)c2ccccc2)c1 (stereo not shown) [CBK305136],104%,–
CCNc1nccnc1-c1ccncc1 [CBK088586],119%,–
CC(C)CC(=O)NCCn1nc(-c2cccs2)oc1=O [CBK282342],114%,–
COc1ccc2[nH]c3c(c2c1)CCNC31CCN(CCSc2ccccc2)C1 (stereo not shown) [CBK084541T],92%,–
COCCn1cc(CN2CCC(CO)C2)c2ccccc21 (stereo not shown) [CBK282123],99.2%,–
O=S(=O)(Nc1cccc(-c2nnn[nH]2)c1)c1cc(Br)c(Cl)s1 [CBK160374],102%,–
O=C1CC(N(O)c2ccccc2)C(=O)N1c1ccc(F)cc1 (stereo not shown) [CBK288419],104%,–
COc1cccc([C@H]2CN(C(=O)c3ccccc3)[C@@H]3CCN(Cc4ccccc4)C[C@H]23)c1 [CBK285624],88.2%,–
O=C(Nc1cncc(OC2CCNCC2)n1)c1cnccn1 [CBK036372T],93%,–
COc1cc(CN2CCN(C/C=C/c3ccccc3)CC2)c([N+](=O)[O-])cc1OC [CBK261550],86.4%,–
c1cncc(-c2nc(NCCN3CCOCC3)c3ccccc3n2)c1 [CBK264566C],91%,–
CCOC(=O)NC(=O)Nc1cc2ccccc2c(Br)n1 [CBK063282],88.1%,–
Cc1cc(C)nc(N2CCC(C3CC=CCN(CCc4ccccc4)C3=O)CC2)n1 (stereo not shown) [CBK285575],105%,–
O=[N+]([O-])c1cc(F)ccc1Oc1cccc(Cl)c1Cl [CBK002604],112%,–
Oc1ccc(-n2cc(-c3ccc(F)cc3)nn2)cc1 [CBK113126],82%,–
COc1ccc(C)cc1NC(=O)CCN1CCN(CCO)CC1 [CBK264199],97.4%,–
CSc1ccccc1CNC(=O)c1cc(Br)cnc1N(C)S(C)(=O)=O [CBK076529],96.7%,–
CN(C)c1ccc(-c2nccnc2NCc2ccc(S(C)(=O)=O)cc2)cc1 [CBK036902],104%,–
CC1=NN(c2nc(-c3ccc(Br)cc3)cs2)C(=O)C1/N=N/c1cccc(CO)c1 (stereo not shown) [CBK262429],104%,–
CCOc1ccc2cc(C3CC(c4ccc(C)cc4)=NN3C(=O)CCC(=O)O)c(Cl)nc2c1 (stereo not shown) [CBK297508],87.2%,–
NC(=O)c1cccnc1N1CCNCC1 [CBK025310C],85.8%,–

SMILES,"viability at 28.5 h, 10 µM","viability at 28.5 h, 10 µM (bulk resorufin, single well)"
N#Cc1ccc(CNC(=O)N2CCN(Cc3ccccc3)CC2)cc1 [CBK155637],90.1%,–
COc1cc(OC)c2c(c1)OC1(CCN(C(=O)c3cnc(C)cn3)CC1)CC2=O [CBK156503],105%,–
COC(=O)c1c(C)[nH]c(C(=O)N2CCCC2c2cccnc2)c1C (stereo not shown) [CBK296639],98.8%,–
Cc1cc(C)n(C(C)Cn2cncc2-c2cn(C)nc2C)n1 (stereo not shown) [CBK281792],102%,–
CCOCCc1nsc(NS(=O)(=O)c2cccc(Cl)c2C)n1 [CBK034245],102%,–
CCc1ccc(CN2CCN(Cc3cc(Br)ccc3O)CC2)cc1 [CBK263666],–,96.5%
Cc1cccc(CSc2nc3ncccc3[nH]2)c1 [CBK287963],96.9%,–
CCNc1cncc(-c2ccc(C(N)=O)cc2)n1 [CBK065414],96.2%,–
CC(=O)Nc1cc(NC(=O)CCCC(=O)O)ccc1Cl [CBK263949],73.3%,–
O=C(Cc1c[nH]c2ccccc12)N1CCC2(CCCN(Cc3cc(=O)[nH]c(=O)[nH]3)C2)C1 (stereo not shown) [CBK132049],102%,–
CN(C)CCCNC(=O)COc1ccccc1 [CBK262189],88%,–
CCS(=O)(=O)N1CCC(c2onc3c2CCCCC3)CC1 [CBK284497],93.5%,–
CCC(=O)N1CCC(C#N)(c2ccccc2)CC1 [CBK091400],–,87%
CSc1ccccc1C(=O)Nc1sc2c(c1C#N)CCN(C(C)=O)C2 [CBK304183],55.3%,–
Cc1cc2nc(/C(C#N)=C\c3cn(CC(=O)Nc4ccc(F)cc4)c4ccccc34)[nH]c2cc1C [CBK269142],113%,–
COc1ccc2c(c1)CC(C(=O)N1CCc3sccc3C1c1cccs1)CO2 (stereo not shown) [CBK285628],110%,–
O=C(NCCn1cncn1)C1(c2ccccc2F)CC1 [CBK283087],87%,–
COc1ccccc1-c1ccc(CC2(C(=O)NCCc3ccccc3)CCOCC2)cc1 [CBK286516],102%,–
Cc1nn(C)c(C)c1CCC(=O)N1CCCCC1c1ncc(-c2cccc(F)c2)[nH]1 (stereo not shown) [CBK291150],89.9%,–
COc1nc(-c2ccccc2)ccc1-c1noc(COc2ccccc2)n1 [CBK266841],91.8%,–
COc1cc(/C=C/C(=O)O)cc(S(=O)(=O)N2CCOCC2)c1OC [CBK264078],117%,–
O=C1CC2(CCCC2)C(=O)N1c1ccc(S(=O)(=O)NC2CCN(Cc3ccccc3)CC2)cc1Cl [CBK074650],99.8%,–

SMILES,"viability at 28.5 h, 10 µM","viability at 28.5 h, 10 µM (bulk resorufin, single well)"
CC(C)[C@@H](CO)n1c(=O)[nH]c2ncc(-c3cccc4cccnc34)nc21 [CBK064848],102%,–
Cc1nc2ncccn2c1-c1csc(Nc2ccc(C(=O)O)cc2)n1 [CBK263284],125%,–
CCc1nn(CC(=O)NC(C)(C)C)c(=O)c2cc3ccsc3n12 [CBK284183],105%,–
C[C@H]1[C@@H]2[C@@H](O)C([C@H](C)C(=O)N3CCCC3)CC[C@@]2(C)CC[C@@H]1NC(=O)c1ccccc1 (stereo partly shown) [CBK289441],106%,–
CS(=O)(=O)N(Cc1ccc(Cl)cc1)c1ccc(C(=O)Nc2ccccc2C(F)(F)F)cc1 [CBK263988],101%,–
COc1cccc(NC(=O)CN(c2ccccc2)S(=O)(=O)c2ccc(Cl)cc2)c1 [CBK265366],102%,–
Cc1cccc(CN(CC(C)(C)CN)C(=O)Nc2ccc(-c3ccccc3)cc2)n1 [CBK002453C],86.7%,–
CCN(CC)c1nc2n(c(=O)n1)CCN2CC [CBK027342],94.9%,–
CC1CN(Cc2nc3c(c(=O)n(C)c(=O)n3C)n2CCCO)CC(C)O1 (stereo not shown) [CBK269298],99%,–
CCOc1cc(C(c2c[nH]c3ccccc23)c2c[nH]c3ccccc23)cc([N+](=O)[O-])c1O [CBK266061],101%,–
CCN(CC)CCN1CCN(c2cncc(-c3ccc(F)cc3F)n2)CC1 [CBK065668],107%,–
CCCC(=O)Nc1ccc(-c2csc(CCN3CCOC3=O)n2)cc1 [CBK305687],97%,–
CCn1ncc(CN(C)C(=O)CCN2CCCCCC2=O)c1C [CBK306718],97.2%,–
CC(C)c1noc(C(C)N2CCN(Cc3noc(C(C)(C)C)n3)CC2)n1 (stereo not shown) [CBK305202],84.4%,–
COc1ccc([N+](=O)[O-])cc1NC(=O)C1(c2ccc(OC)c(OC)c2)CCOCC1 [CBK266243],98.2%,–
CCOC(=O)c1cnc(Nc2nc3ccccc3o2)nc1CN1CCN(c2ccccc2)CC1 [CBK266927],93.1%,–
COc1cccc(C(=O)N2CCC[C@@H](N)[C@@H]2c2ccccc2F)c1 [CBK283457],88.1%,–
Cc1ccc(N(Cc2cc3cccc(C)c3nc2O)C(=O)c2cccc([N+](=O)[O-])c2)cc1 [CBK265426],98.2%,–
Cc1nc(C2CCN(C(=O)C3CCC3)CC2)nc2c1CCCN2CCc1ccccc1 [CBK285645],97.3%,–
CSc1ncc(Cl)c(C(=O)NCCc2ccc(S(N)(=O)=O)cc2)n1 [CBK268679],104%,–
Cn1c(=O)cc(NCCCCCC(=O)O)[nH]c1=O [CBK286574],88.3%,–
COC(=O)c1cccc(CN2CCC3(CC2)NC(=O)Cc2ccccc23)c1 [CBK039807],101%,–
